Reference: US6057311A, “Benzodiazonine derivatives binding to cholecystokinin or gastrin receptors” (James Black Foundation Limited, priority 1996, dated 2000)

What was measured:
CCKB receptor = target: T1, CCKB receptor (Mus musculus, UniProt P56481); assay: radioligand binding assay at the CCKB receptor in mouse cortical membranes ([125I]-CCK8S); details: [125I]-CCK8S 200 pM, 150 min at 21±3° C.; for pKi (Mouse cortex): pH 7.2; for Ki: pH 7.2, read-out: pKi (Mouse cortex) (converted)
T1 construct: The cortex was dissected, weighed and homogenised in 40 ml ice-cold buffer; tissue Charles River (animals); host or cells: cerebral cortex of male CD1 mice, membranes
T1 sequence (P56481 1-453): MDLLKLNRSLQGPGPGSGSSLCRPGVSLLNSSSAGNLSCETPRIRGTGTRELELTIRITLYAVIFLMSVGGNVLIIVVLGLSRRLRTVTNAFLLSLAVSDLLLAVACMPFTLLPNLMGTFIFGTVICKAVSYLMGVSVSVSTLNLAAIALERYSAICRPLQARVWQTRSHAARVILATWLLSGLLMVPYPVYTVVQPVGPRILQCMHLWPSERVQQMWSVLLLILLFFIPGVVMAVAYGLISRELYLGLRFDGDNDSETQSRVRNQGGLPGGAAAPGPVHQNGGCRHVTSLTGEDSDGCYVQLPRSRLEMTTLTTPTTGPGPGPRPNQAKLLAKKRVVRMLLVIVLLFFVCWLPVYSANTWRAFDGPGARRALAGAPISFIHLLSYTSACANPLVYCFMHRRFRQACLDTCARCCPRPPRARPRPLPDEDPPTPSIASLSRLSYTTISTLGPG
Outline: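 Male CD1 mouse cortical membranes (2 mg/ml original wet weight) were incubated 150 min at 21±3 °C in HEPES buffer pH 7.2 (130 mM NaCl, 4.7 mM KCl, 5 mM MgCl2, 1 mM EDTA, bacitracin) with [125I]-CCK8S and competitor. Non-specific binding was defined with L-365,260; bound label was measured by GF/B filtration and gamma counting.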

CCKA = target: T2, CCKA (Cavia porcellus, UniProt Q63931); assay: CCKA binding assay, guinea pig pancreas membranes ([125I]-CCK8(S)); details: [125I]-CCK8(S) 200 pM, 0.375 μM PD134,308, 150 min at 21±3° C.; for pKi (Guinea pig pancreas): pH 7.2; for Ki: pH 7.2, read-out: pKi (Guinea pig pancreas) (converted)
T2 construct: The pancreatata were removed from male guinea-pigs; from tissue; host or cells: pancreas of male Dunkin Hartley guinea pigs, membranes
T2 sequence (Q63931 1-430): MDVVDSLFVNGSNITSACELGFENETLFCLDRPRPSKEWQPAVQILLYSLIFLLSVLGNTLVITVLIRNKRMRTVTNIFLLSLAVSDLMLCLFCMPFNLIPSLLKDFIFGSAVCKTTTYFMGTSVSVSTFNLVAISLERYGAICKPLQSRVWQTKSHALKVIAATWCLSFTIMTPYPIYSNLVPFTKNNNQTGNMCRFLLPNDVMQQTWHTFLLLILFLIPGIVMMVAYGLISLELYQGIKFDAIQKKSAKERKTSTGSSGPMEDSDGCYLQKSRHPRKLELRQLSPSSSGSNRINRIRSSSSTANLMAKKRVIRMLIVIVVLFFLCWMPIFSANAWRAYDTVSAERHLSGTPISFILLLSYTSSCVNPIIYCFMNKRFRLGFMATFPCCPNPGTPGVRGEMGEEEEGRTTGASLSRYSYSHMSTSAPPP
Outline: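 Guinea-pig pancreatic membranes (1 mg/ml original wet weight, containing 0.375 μM PD134,308) were incubated 150 min at 21±3 °C in HEPES pH 7.2 with [125I]-CCK8(S), added at 200 pM, and competitor. Non-specific binding used L-364,718 (100 nM added). Bound tracer was filtered on GF/B and gamma-counted.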

For CC(=O)N1[C@H](CC23CC4CC(CC(C4)C2)C3)C(=O)N(Cc2ccccc2)c2ccccc2C(=O)C[C@H]1C(=O)N1CCC[C@H]1C(=O)O (single isomer, unassigned; isomer 1) [Example 27], the “pKi (Mouse cortex)” value (CCKB receptor) was 5.0 and the “pKi (Guinea pig pancreas)” value (CCKA) was 5.0.
In the case of COC(=O)[C@@H]1CC(=O)c2ccccc2N(Cc2ccccc2)C(=O)[C@@H](CC23CC4CC(CC(C4)C2)C3)N1C(C)=O [Example 18, (3R,5S)-methyl 4-acetyl-3-[(1-adamantyl)methyl]-1-benzyl-2,7-dioxo-2,3,4,5,6,7-hexahydro-1H-1,4-benzodiazonine-5-carboxylate], the “pKi (Mouse cortex)” value (CCKB receptor) is reported as 5.5 and the “pKi (Guinea pig pancreas)” value (CCKA) is reported as 5.4.
COc1cccc(NC(=O)N2CCCc3ccccc3N(CC(=O)OC(C)(C)C)C(=O)C2)c1 [Example 55, 1-tert-butyloxycarbonylmethyl-4-(3-methoxyphenyl)carbamyl-2-oxo-2,3,4,5,6,7-hexahydro-1H-1,4-benzodiazonine] was tested, and the Ki (CCKB receptor) was 10 µM and the Ki (CCKA) was 1 µM.
In the case of CC(=O)N1[C@H](CCC(C)C)C(=O)N(Cc2ccccc2)c2ccccc2C(=O)C[C@H]1C(=O)NCC(=O)O [Example 38, (3R,5S)-4-acetyl-1-benzyl-5-carboxymethylaminocarbonyl-3-(3,3-dimethyl)propyl-2,7-dioxo-2,3,4,5,6,7-hexahydro-1H-1,4-benzodiazonine], the “pKi (Mouse cortex)” value (CCKB receptor) is reported as 5.3 and the “pKi (Guinea pig pancreas)” value (CCKA) is reported as 5.0.
Nc1cccc(CN2C(=O)C(CC34CC5CC(CC(C5)C3)C4)N(C(=O)CC(=O)O)CCC(=O)c3ccccc32)c1 (racemic) [Example 35, (R/S)-3-(1-adamantyl)methyl-1-(3-amino)benzyl-4-carboxymethylcarbonyl-2,7-dioxo-2,3,4,5,6,7-hexahydro-1H-1,4-benzodiazonine] was tested, and the Ki (CCKB receptor) was 2.51 µM and the Ki (CCKA) was 7.94 µM.
Cc1cccc(NC(=O)N2CCC(c3ccccc3)c3ccccc3N(Cc3ccccc3)C(=O)C2)c1 (stereo not drawn) [Example 50, 1-benzyl-7-phenyl-4-(3-methylphenyl)carbamyl-2-oxo-2,3,4,5,6,7-hexahydro-1H-1,4-benzodiazonine] was tested, and the “pKi (Mouse cortex)” value (CCKB receptor) was 5.8 and the “pKi (Guinea pig pancreas)” value (CCKA) was 5.9.
Compound COc1cccc(CN2C(=O)[C@@H](CC34CC5CC(CC(C5)C3)C4)N(C(C)=O)[C@H](C(=O)O)CC(=O)c3ccccc32)c1 [Example 13, (3R,5S)-4-acetyl-3-[(1-adamantyl)methyl]-1-(3-methoxy)benzyl-2,7-dioxo-2,3,4,5,6,7-hexahydro-1H-1,4-benzodiazonine-5-carboxylate] has a Ki (CCKB receptor) of 2.51 µM and a Ki (CCKA) of 3.16 µM.
Compound CC(=O)N1[C@@H](C(=O)NCC(=O)O)CC(=O)c2ccccc2N(Cc2ccccc2)C(=O)[C@@H]1CC12CC3CC(CC(C3)C1)C2 [Example 36, (3S,5R)-4-acetyl-3-(1-adamantyl)methyl-1-benzyl-5-carboxymethylaminocarbonyl-2,7-dioxo-2,3,4,5,6,7-hexahydro-1H-1,4-benzodiazonine] has a Ki (CCKB receptor) of 3.16 µM and a Ki (CCKA) of 5.01 µM.
Work on CC(=O)N1[C@H](CC(C)(C)C)C(=O)N(Cc2ccccc2)c2ccccc2C(=O)C[C@H]1C(=O)O [Example 19, (3R,5S)-4-acetyl-1-benzyl-3-(2,2-dimethylpropyl)-2,7-dioxo-2,3,4,5,6,7-hexahydro-1H-1,4-benzodiazonine-5-carboxylate] yielded a Ki (CCKB receptor) of 7.94 µM and a Ki (CCKA) of 15.8 µM.
In the case of C=C1CCN(C(=O)Nc2cccc(C)c2)CC(=O)N(Cc2ccccc2)c2ccccc21 [Example 9, 1-benzyl-7-methylene-4-(3-methylphenyl)carbamyl-2-oxo-2,3,4,5,6,7-hexahydro-1H-1,4-benzodiazonine], the Ki (CCKB receptor) is reported as 3.98 µM and the Ki (CCKA) is reported as 0.316 µM.
With CC(=O)N1[C@H](CC2CCCCC2)C(=O)N(Cc2ccccc2)c2ccccc2C(=O)C[C@H]1C(=O)NCC(=O)O [Example 40, (3R,5S)-4-acetyl-1-benzyl-5-carboxymethylaminocarbonyl-3-cyclohexylmethyl-2,7-dioxo-2,3,4,5,6,7-hexahydro-1H-1,4-benzodiazonine] the “pKi (Mouse cortex)” value (CCKB receptor) was 5.4 and the “pKi (Guinea pig pancreas)” value (CCKA) was 4.7.
Work on CC(=O)N1[C@H](CC23CC4CC(CC(C4)C2)C3)C(=O)N(C)c2ccccc2C(=O)C[C@H]1C(=O)NCC(=O)O [Example 32, (3R,5S)-4-acetyl-3-(1-adamantyl)methyl-5-carboxymethylaminocarbonyl-1-methyl-2,7-dioxo-2,3,4,5,6,7-hexahydro-1H-1,4-benzodiazonine] yielded a Ki (CCKB receptor) of 5.01 µM and a Ki (CCKA) of 10 µM.
CC(=O)N1[C@H](CC23CC4CC(CC(C4)C2)C3)C(=O)N(Cc2cccc(F)c2)c2ccccc2C(=O)C[C@H]1C(=O)NCC(=O)O [Example 60, (3R,5S)-4-acetyl-3-(1-adamantyl)methyl-1-(3-fluorobenzyl)-5-carboxymethylaminocarbonyl-2,7-dioxo-2,3,4,5,6,7-hexahydro-1H-1,4-benzodiazonine] showed a Ki (CCKB receptor) of 0.2 µM and a Ki (CCKA) of 10 µM.
In the case of CC(=O)N1[C@H](CC23CC4CC(CC(C4)C2)C3)C(=O)N(Cc2ccccc2)c2ccccc2C(=O)C[C@H]1C(=O)N(C)CC(=O)O (single isomer, unassigned; isomer 1) [Example 29], the “pKi (Mouse cortex)” value (CCKB receptor) is reported as 5.5 and the “pKi (Guinea pig pancreas)” value (CCKA) is reported as 5.2.
Compound CC(=O)N1[C@H](CC23CC4CC(CC(C4)C2)C3)C(=O)N(Cc2ccccc2)c2ccc(F)cc2C(=O)C[C@H]1C(=O)NCC(=O)O (relative stereo) [Example 61, (+/-)-trans-4-acetyl-3-(1-adamantyl)methyl-1-benzyl-5-carboxymethylaminocarbonyl-2,7-dioxo-9-fluoro-2,3,4,5,6,7-hexahydro-1H-1,4-benzodiazonine] has a Ki (CCKB receptor) of 0.398 µM and a Ki (CCKA) of 12.6 µM.
O=C(O)CCC(=O)N1CCC(=O)c2ccccc2N(Cc2ccccc2)C(=O)C1CC12CC3CC(CC(C3)C1)C2 (racemic) [Example 33, (R/S)-3-(1-adamantyl)methyl-1-benzyl-4-(2-carboxy)ethylcarbonyl-2,7-dioxo-2,3,4,5,6,7-hexahydro-1H-1,4-benzodiazonine] gave a Ki (CCKB receptor) of 10 µM and a Ki (CCKA) of 6.31 µM.
Cc1cccc(NC(=O)N2CCC(O)c3ccccc3N(Cc3ccccc3)C(=O)C2)c1 (single isomer, unassigned; isomer 2) [Example 8, 1-benzyl-7-hydroxy-4-(3-methylphenyl)carbamyl-2-oxo-2,3,4,5,6,7-hexahydro-1H-1,4-benzodiazonine (isomer 2)] showed a Ki (CCKB receptor) of 10 µM and a Ki (CCKA) of 1 µM.
Compound O=C1C[C@@H](C(=O)O)N(C(=O)OCc2ccccc2)[C@H](CC23CC4CC(CC(C4)C2)C3)C(=O)N(Cc2ccccc2)c2ccccc21 [Example 20, (3R,5S)-3-(1-adamantyl)methyl-1-benzyl-4-benzyloxycarbonyl-2,7dioxo-2,3,4,5,6,7-hexahydro-1H-1,4-benzodiazonine-5-carboxylate] has a Ki (CCKB receptor) of 3.16 µM and a Ki (CCKA) of 3.98 µM.
In the case of CC(=O)N1[C@H](CC2CCCCCC2)C(=O)N(Cc2ccccc2)c2ccccc2C(=O)C[C@H]1C(=O)NCC(=O)O [Example 39, (3R,5S)-4-acetyl-1-benzyl-5-carboxymethylaminocarbonyl-3-cycloheptylmethyl-2,7-dioxo-2,3,4,5,6,7-hexahydro-1H-1,4-benzodiazonine], the “pKi (Mouse cortex)” value (CCKB receptor) is reported as 5.6 and the “pKi (Guinea pig pancreas)” value (CCKA) is reported as 5.0.
CC(=O)N1[C@H](CC23CC4CC(CC(C4)C2)C3)C(=O)N(Cc2cccc(Cl)c2)c2ccccc2C(=O)C[C@H]1C(=O)O [Example 15] was tested, and the Ki (CCKB receptor) was 1.26 µM and the Ki (CCKA) was 1.58 µM.
Work on CC(=O)N1[C@H](CC23CC4CC(CC(C4)C2)C3)C(=O)N(Cc2ccccc2)c2ccccc2C(=O)C[C@H]1C(=O)NC(C)(C)C(=O)O [Example 26, (3R,5S)-4-acetyl-3-(1-adamantyl)methyl-1-benzyl-5-(1-carboxy-1-methyl)ethylaminocarbonyl-2,7-dioxo-2,3,4,5,6,7-hexahydro-1H-1,4-benzodiazonine] yielded a Ki (CCKB receptor) of 1 µM and a Ki (CCKA) of 6.31 µM.
